The values below come from patent US20240246916A1, “7-NITRO-8-HYDROXYQUINOLINE DERIVATIVES, PREPARATION METHOD THEREFORE AND MEDICAL USE THEREOF” (Jiangsu Yahong Meditech Co., Ltd., priority 2021, published 2024).

Values after ≈ are worked out from the molar mass of the structure shown. A value given as a limit tells only on which side of the number the result lay.

Type in all cases: cell-based
For experiment [1], the system named is Bladder cancer cell line UM-UC-3. The experiment can be described thus: Inhibitory activity on cancer cells, CellTiter-Glo viability, UM-UC-3. Particulars: Homo sapiens, UMUC3, 72 hours treatment. Summed up: (§1)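 24 h attachment; HUVEC 2000, UM-UC-3/RM-1 3000, LNCaP 5000 cells/well. 8-pt 2.5× dilution from 100 μmol, 72 h, 37 °C/5% CO2. CellTiter-Glo; IC50 from curve fit; max = cells + DMSO vehicle, min = medium only.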

Experiment [2] deals with Prostate cancer cell line LNcaP. The experiment in a line: Inhibitory activity on cancer cells, CellTiter-Glo viability, LNcaP. Particulars: Homo sapiens, 72 hours treatment. Summed up:
as §1

For experiment [3], the system named is Acinetobacter baumannii (carbapenem-resistant clinical isolates; ATCC19606). The experiment in a line: MIC by micro broth dilution (CLSI), Acinetobacter baumannii. To be noted: Acinetobacter baumannii; for MIC50 / MIC90: ATCC19606, Clinical strain; for MIC50: read-out: MIC50; for MIC90: read-out: MIC90; for MIC: Standard strain ATCC19606, read-out: MIC. In outline:
(§2)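 Duplicate same-patient isolates are excluded and quality control strains are run alongside. Inoculum prepared by direct colony suspension to 0.5 McFarland then diluted 100-fold to reach 10^5 CFU/mL in CAMHB. Drug spans 128 to 0.06 mg/L; incubation lasts 20 hours at 35±2° C.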

The test system of experiment [4] is Mouse prostate cancer cell line RM1. The experiment can be described thus: Inhibitory activity on cancer cells, CellTiter-Glo viability, RM1. Particulars: 72 hours treatment. On the procedure:
HUVEC (purchased from Allcells Biological Technology (Shanghai) Co., Ltd.); UM-UC-3 (ATCC); LNCaP (ATCC); RM-1 (purchased from Nanjing Cobioer Biosciences Co., Ltd.) (1) On the first day, the cells were seeded in a 96-well plate, and the previous medium was poured off. 5 mL of DPBS was added to wash the cells, and then removed by a pipette and discarded. Then, 1 mL of trypsin (0.25%) was added, and the plate was placed in a cell culture incubator at 37 °C, 5% CO2 for digestion, and taken out after about 2 to 5 minutes. New corresponding medium was added, and pipetted to resuspend the cells evenly, and the cells were then counted with an automated cell counter. Regarding HUVEC, the medium used was endothelial cell complete medium; regarding UM-UC-3, the medium used was 89 v % EMEM+10 v % fetal bovine serum+1 v % penicillin-streptomycin double anti-body; regarding LNcaP, the medium used was 89 v % RPM11640+10 v % fetal bovine serum+1 v % penicillin-streptomycin double anti-body; and regarding RM1, the medium used was 89 v % DMEM+10 v % fetal bovine serum+1 v % penicillin-streptomycin double anti-body. (2) HUVEC cells were seeded in columns 1 to 11 of a 96-well plate (Corning, Cat. No. 3610) at a density of 2000 cells per well in 100 μL of medium, and the medium free of cell was added to the wells of column 12. The other three types of cells were also seeded, wherein UM-UC-3 and RM-1 cells were seeded at a density of 3000 cells per well, and LNCap cells were seeded at a density of 5000 cells per well. Then, the plate was placed in an incubator at 37° C., 5% CO2 for 24 hours. (3) On the second day, the compounds of the present invention and the reference drug nitroxoline (obtained according to the preparation method disclosed in the prior art) were diluted in gradient (2.5 folds, started at 100 μmol) to obtain 8 dose points (there were a total of 8 columns of wells; the first column of wells had the highest concentration, the concentration decreased in turn, and the last column of wells had the lowest concentration). 10 μL of the compound diluted in gradient was added to the 100 μL of cells in column 1 to column 10 with an 8-channel pipette. 10 μL of the corresponding medium containing 0.33 v % DMSO was added to column 11 and column 12. The plate was incubated in an incubator at 37° C., 5% CO2 for 72 hours (note: column 11 was used as MAX well with cells and no compounds; and column 12 was used as MIN well with no cells and no compounds). (4) After treating with the compounds of the present invention for 72 hours, the cell viability detection reagents in the above CellTiter-Glo® assay kit were added to the 96-well plate at 50 μL per well according to the instructions. The plate was shaken on a shaker in the dark for 5 to 10 minutes, and then the cell activity was determined by a multifunctional microplate reader. Finally, the growth inhibition of the compounds of the present invention on the cells was plotted by XLFIT 5.3 software, and the IC50 values of the compounds of the present invention were calculated.

Experiment [5] concerns Endothelial cell line HUVEC. The experiment in a line: Inhibitory activity on cells, CellTiter-Glo viability, HUVEC. Particulars: Homo sapiens, 72 hours treatment. In outline:
as §1

The test system of experiment [6] is Escherichia coli (carbapenem-resistant clinical isolate; ATCC25922). The experiment can be described thus: MIC by micro broth dilution (CLSI), Escherichia coli. Particulars: Escherichia coli; for MIC50 / MIC90: ATCC25922, Clinical strain; for MIC50: read-out: MIC50; for MIC90: read-out: MIC90; for MIC: Standard strain ATCC25922, read-out: MIC. Summed up: as §2
Experiment [7] concerns Staphylococcus aureus (methicillin-resistant and sensitive clinical isolates; ATCC29213). The experiment in a line: MIC by micro broth dilution (CLSI), Staphylococcus aureus. Particulars: for MIC50 / MIC90: Clinical strain; for MIC50: read-out: MIC50; for MIC90: read-out: MIC90; for MIC: Standard strain ATCC29213, read-out: MIC. Summed up: as §2

With `O=[N+]([O-])c1ccc2c(O)ccnc2c1O` [Example 30, 7-Nitroquinoline-4,8-diol], the IC50 in experiment [1], in experiment [2], in experiment [4] and in experiment [5] was greater than 100000 nM throughout. The MIC50 in experiment [3], in experiment [6] and in experiment [7] was greater than 128 µg/mL throughout. In addition, the MIC90 in experiment [3], in experiment [6] and in experiment [7] was greater than 128 µg/mL each time. The MIC in experiment [3], in experiment [6] and in experiment [7] was greater than 128 µg/mL in each case.

Regarding `COC(=O)N1CCN(c2ccnc3c(O)c([N+](=O)[O-])cc(Cl)c23)CC1` [Example 31, Methyl 4-(5-chloro-8-hydroxy-7-nitroquinolin-4-yl)-piperazine-1-carboxylate], the IC50 in experiment [1] was 940 nM; in experiment [2], 960 nM; in experiment [4], 460 nM; in experiment [5] it was 1630 nM. Besides, the MIC50 in experiment [3], in experiment [6] and in experiment [7] was greater than 128 µg/mL throughout. Besides, the MIC90 in experiment [3], in experiment [6] and in experiment [7] was greater than 128 µg/mL in each case. In addition, the minimal inhibitory concentration (MIC) in experiment [3], in experiment [6] and in experiment [7] was greater than 128 µg/mL throughout.

In the case of `O=[N+]([O-])c1ccc2c(C3CCCCC3)ccnc2c1O` [Example 32, 4-Cyclohexyl-7-nitroquinolin-8-ol], the IC50 in experiment [1] was determined as 1090 nM; in experiment [2], 230 nM; in experiment [4], 600 nM; in experiment [5], 890 nM. Also, the MIC50 was found to be 32 µg/mL (≈ 118 µM) in experiment [3], 64 µg/mL (≈ 235 µM) in experiment [6] and 1 µg/mL (≈ 3.67 µM) in experiment [7]. In addition, the MIC90 in experiment [3] stood at 32 µg/mL (≈ 118 µM); in experiment [6], 64 µg/mL (≈ 235 µM); in experiment [7] it was 1 µg/mL (≈ 3.67 µM). Also, the minimal inhibitory concentration (MIC) came out at 32 µg/mL (≈ 118 µM) in experiment [3], 64 µg/mL (≈ 235 µM) in experiment [6] and 1 µg/mL (≈ 3.67 µM) in experiment [7].

`CC(=O)N1CCN(c2ccnc3c(O)c([N+](=O)[O-])cc(Cl)c23)CC1` [Example 33, 4-(5-Chloro-8-hydroxy-7-nitroquinolin-4-yl)-1-acetylpiperazine]: the IC50 in experiment [1] stood at 50500 nM; in experiment [2] it was 15000 nM; in experiment [4], 18000 nM; in experiment [5], 17000 nM. The MIC50 in experiment [3] is greater than 128 µg/mL; in experiment [6], greater than 128 µg/mL; in experiment [7] it was 32 µg/mL (≈ 91.2 µM). The MIC90 in experiment [3] was greater than 128 µg/mL; in experiment [6], greater than 128 µg/mL; in experiment [7], 32 µg/mL (≈ 91.2 µM). Moreover, the minimal inhibitory concentration (MIC) in experiment [3] is greater than 128 µg/mL; in experiment [6] it was greater than 128 µg/mL; in experiment [7], 32 µg/mL (≈ 91.2 µM).

For `COc1ccnc2c(O)c([N+](=O)[O-])cc(Cl)c12` [Example 34, 5-Chloro-4-methoxy-7-nitroquinolin-8-ol], the IC50 turned out to be 14000 nM in experiment [1], 6780 nM in experiment [2], 12700 nM in experiment [4] and 6440 nM in experiment [5]. Moreover, the figures for the MIC50 in experiment [3], in experiment [6] and in experiment [7] were 32 µg/mL (≈ 126 µM), 8 µg/mL (≈ 31.4 µM) and 4 µg/mL (≈ 15.7 µM), respectively. Also, the MIC90 worked out at 32 µg/mL (≈ 126 µM) in experiment [3], 32 µg/mL (≈ 126 µM) in experiment [6] and 8 µg/mL (≈ 31.4 µM) in experiment [7]. Moreover, the results for the MIC in experiment [3], in experiment [6] and in experiment [7] were 32 µg/mL (≈ 126 µM), 8 µg/mL (≈ 31.4 µM) and 4 µg/mL (≈ 15.7 µM), respectively.

Take `CN(C)C(=O)N1CCN(c2ccnc3c(O)c([N+](=O)[O-])cc(Cl)c23)CC1` [Example 35, 4-(5-Chloro-8-hydroxy-7-nitroquinolin-4-yl)-N,N-dimethylpiperazine-1-carboxamide]: the IC50 was 49700 nM in experiment [1], 31200 nM in experiment [2], greater than 50000 nM in experiment [4] and 27000 nM in experiment [5]. The MIC50 in experiment [3], in experiment [6] and in experiment [7] was greater than 128 µg/mL throughout. Besides, the MIC90 in experiment [3], in experiment [6] and in experiment [7] was greater than 128 µg/mL each time. Moreover, the MIC in experiment [3], in experiment [6] and in experiment [7] was greater than 128 µg/mL throughout.

With `O=[N+]([O-])c1cc(Cl)c2c(N3CCCCC3)ccnc2c1O` [Example 36, 5-Chloro-7-nitro-4-piperidinylquinolin-8-ol], the IC50 in experiment [1] was found to be 2420 nM; in experiment [2] it was 960 nM; in experiment [4], 2810 nM; in experiment [5], 1480 nM. Moreover, the MIC50 was greater than 128 µg/mL in experiment [3], greater than 128 µg/mL in experiment [6] and 8 µg/mL (≈ 26 µM) in experiment [7]. The MIC90 is greater than 128 µg/mL in experiment [3], greater than 128 µg/mL in experiment [6] and 8 µg/mL (≈ 26 µM) in experiment [7]. The MIC in experiment [3] was greater than 128 µg/mL; in experiment [6], greater than 128 µg/mL; in experiment [7], 8 µg/mL (≈ 26 µM).

As for `O=[N+]([O-])c1cc(Cl)c2c(N3CCNCC3)ccnc2c1O` [Example 37, 5-Chloro-7-nitro-4-(piperazin-1-yl)quinolin-8-ol], the IC50 in experiment [1] was greater than 50000 nM; in experiment [2], 40400 nM; in experiment [4], greater than 50000 nM; in experiment [5], greater than 50000 nM. In addition, the MIC50 in experiment [3] is greater than 128 µg/mL; in experiment [6] it was greater than 128 µg/mL; in experiment [7], 128 µg/mL (≈ 415 µM). In addition, the MIC90 in experiment [3], in experiment [6] and in experiment [7] was greater than 128 µg/mL in each case. Further, the MIC in experiment [3] was greater than 128 µg/mL; in experiment [6], greater than 128 µg/mL; in experiment [7], 128 µg/mL (≈ 415 µM).

As to `COC1CCN(c2ccnc3c(O)c([N+](=O)[O-])cc(Cl)c23)CC1` [Example 38, 5-Chloro-4-(4-methoxypiperidin-1-yl)-7-nitroquinolin-8-ol], the IC50 came out at 6720 nM in experiment [1], 1870 nM in experiment [2], 3000 nM in experiment [4] and 2360 nM in experiment [5]. Besides, the MIC50 in experiment [3] is 128 µg/mL (≈ 379 µM); in experiment [6] it was greater than 128 µg/mL; in experiment [7], 8 µg/mL (≈ 23.7 µM). Also, the MIC90 in experiment [3] was 128 µg/mL (≈ 379 µM); in experiment [6], greater than 128 µg/mL; in experiment [7], 16 µg/mL (≈ 47.4 µM). In addition, the minimal inhibitory concentration (MIC) was 128 µg/mL (≈ 379 µM) in experiment [3], 128 µg/mL (≈ 379 µM) in experiment [6] and 8 µg/mL (≈ 23.7 µM) in experiment [7].

For `O=[N+]([O-])c1cc(Cl)c2c(N3CCC(C(F)(F)F)CC3)ccnc2c1O` [Example 39, 5-Chloro-7-nitro-4-(4-(trifluoromethyl)piperidin-1-yl)quinolin-8-ol], the IC50 in experiment [1] was found to be 950 nM; in experiment [2], 430 nM; in experiment [4], 1250 nM; in experiment [5], 1110 nM. Further, the MIC50 in experiment [3] was greater than 128 µg/mL; in experiment [6], greater than 128 µg/mL; in experiment [7], 4 µg/mL (≈ 10.6 µM). The MIC90 in experiment [3] was greater than 128 µg/mL; in experiment [6], greater than 128 µg/mL; in experiment [7], 8 µg/mL (≈ 21.3 µM). For the same compound, the values for the MIC in experiment [3], in experiment [6] and in experiment [7] were greater than 128 µg/mL, greater than 128 µg/mL and 4 µg/mL (≈ 10.6 µM), respectively.
